Experimental data: US20020062499A1, “Methods for translational repression of gene expression in plants” (priority 2000, published 2002)

Experiments:
GUS expression = assay: MS2 translation repression system in transgenic Arabidopsis (F1 segregants of crosses); type: in vivo; details: Arabidopsis plants containing the MS2 coat protein
Method: Arabidopsis plants are transformed by the Agrobacterium infiltration method as described (Bechtold et al., Methods Mol. Biol. 82:259-66 (1992)). DNA gel blots (Southern blot analysis), RNA gel blots (northern blot analysis) and protein immunoblots (western blot analysis) are carried out using standard protocols (Sambrook et al., Molecular Cloning: A laboratory manual, 2nd ed. Cold Spring Harbor Laboratory Press, Cold Spring Harbor, N.Y., (1989)).
V1 plants positive for GUS and MS2 coat protein are identified using a GUS assay (Jefferson et al., Plant Mol. Bio. Rep. 5:387-405 (1987)) and western blot analysis, respectively. Positive plants with a low copy number are identified by Southern analysis then cross pollinated. F1 plants from the cross are then subjected to PCR analysis to identify segregants that contained both transgenes as well as siblings that contained only the uidA gene. GUS expression levels are determined by MUG assays (Jefferson et al., Plant Mol. Bio. Rep. 5:387-405, (1987)) in both groups of plants for three separate crosses (25×1, 25×12, and 14×23).

[1] = test system: aroA:CP4 EPSPS reporter gene expression; assay: MS2 CP translational repression of CP4 EPSPS reporter, corn protoplast transient assay (ELISA); type: cell-based; details: corn protoplasts
Method: Corn protoplasts are prepared from etiolated leaves of antiseptically grown seedlings. Six to eight grams of leaf tissue is harvested and put in the enzyme mix (1% cellulase, 0.1% macerozyme, 0.6 M mannitol, 10 mM MES (pH =5.7), 1 mM CaCl2, 1 mM MgCl2, and 0. 1% BSA) in 100×25 mm petri plates. The leaf digestion is done for 135 minutes, swirling on a shaker at 50 rpm at 26° C. under light (10-25 mico-einsteins) in a growth chamber (Percival Scientific Inc., Boone, Iowa). Protoplasts are screened through a 190 μm sterile tissue mesh into a petri plate. The protoplasts are spun down in a table top centrifuge at 800 rpm (˜200 g) for 8 minutes. The supernatant is removed carefully by pipetting. The protoplasts are resuspended in 10 mL per tube of the 0.6 M mannitol rinse. They are spun down a second time using the same conditions and re-suspended in 10 mL of the electroporation buffer (0.6 M mannitol, 4 mM MES, 1.0 mM β-mercaptoethanol, 25 mM KCL, pH =5.7) and put on ice. The number of protoplasts is determined by making counts on a hemacytometer and a final density of 4.5×10^6 per mL is obtained with the proper volume of electroporation buffer. For electroporation, 0.75 mL of protoplasts is added to each cuvette followed by the addition of plasmid DNA in a volume of 50 μL or less. Samples are electroporated at 125 […] and 260 volts using a Bio-Rad Gene Pulser Electroporater (Bio-Rad CA) and incubated in Murishige-Skoog medium (MS) +0.6 M mannitol in the light at 26° C. for 18-22 hours before analysis. Protoplasts are harvested by spinning down at 800-1000 rpm in a table top centrifuge and lysed by resuspending in 500 μL extraction buffer (IX phosphate buffered saline [PBS] (Roche Boehringer Mannheim #1666789, Nutley, N.J.) 0.2% BSA, 0.5% Tween 20, pH 7.4) and vortexed for five seconds. Samples are spun at 3,000 rpm for 5 min in a table top centrifuge and the supernatant is saved to a fresh tube and put on ice ready for analysis.
The total amount of DNA in each sample is equalized by using as a carrier an appropriate amount of an empty vector plasmid DNA pMON999 (P-CaMV.35S/T-AGRTU.nos). With the aroA:CP4 EPSPS gene as the reporter, the GUS activity encoded by a separate plasmid is used as an internal control to normalize the expression. Similarly, the aroA:CP4 EPSPS gene expression is used for normalization when the Ec.uidA (GUS) gene is used as the reporter.
The aroA:CP4 EPSPS expression is quantitated by ELISA. A crude protoplast extract containing lmg total protein is added to goat anti-CP4 EPSPS IgG coated wells of a 96-well microtiter plate for immunoreaction. Antibodies specific to CP4 EPSPS are produced in goats by immunization of three goats with recombinant SDS-PAGE purified CP4 EPSPS from recombinant E. coli. […]

[2] = test system: CP4 EPSPS reporter gene expression; assay: Yeast RPL32 translational repression of CP4 EPSPS reporter in corn protoplasts; type: cell-based; details: CP4 EPSPS reporter with RPL32 operator
Method: (§1) Corn protoplasts are prepared from etiolated leaves of antiseptically grown seedlings. Six to eight grams of leaf tissue is harvested and put in the enzyme mix (1% cellulase, 0.1% macerozyme, 0.6 M mannitol, 10 mM MES (pH =5.7), 1 mM CaCl2, 1 mM MgCl2, and 0. 1% BSA) in 100×25 mm petri plates. The leaf digestion is done for 135 minutes, swirling on a shaker at 50 rpm at 26° C. under light (10-25 mico-einsteins) in a growth chamber (Percival Scientific Inc., Boone, Iowa). Protoplasts are screened through a 190 μm sterile tissue mesh into a petri plate. The protoplasts are spun down in a table top centrifuge at 800 rpm (˜200 g) for 8 minutes. The supernatant is removed carefully by pipetting. The protoplasts are resuspended in 10 mL per tube of the 0.6 M mannitol rinse. […] The number of protoplasts is determined by making counts on a hemacytometer and a final density of 4.5×10^6 per mL is obtained with the proper volume of electroporation buffer. […] Samples are spun at 3,000 rpm for 5 min in a table top centrifuge and the supernatant is saved to a fresh tube and put on ice ready for analysis.
For CP4 EPSPS ELISA assay, a 96-well Nunc-Immuno MaxiSorb plate is coated with 100 μL of purified monoclonal anti-CP4 EPSPS IgG antibody (1 ng/μL) in coating buffer (15 mM Na2CO3, 35 mM NaHCO3, pH 9.6). […] The plate is read on a Spectra Max 340 (Molecular Devices, Sunnyvail, Calif. 94089) at 450 nm. […]

[3] = test system: Ec.uidA reporter gene with the MS2 operator in the 5′UTR; assay: MS2 CP translational repression of Ec.uidA (GUS) reporter, corn protoplast transient assay; type: cell-based; details: pMON42178/pMON42176 and pMON42180/pMON42177; corn protoplasts
Method: as §1, with “analysis. […]” for “analysis.”
A fluorometry assay for GUS activity is performed as described (Jefferson, Plant Mol. Bio. Rep. 5:387-405 (1987)). GUS activity is measured with the fluorometric substrate 4-methylumbelliferryl-β-glucuronide (4-MUG) on a Fmax fluorimeter (Molecular Devices Corp., Sunnyvale, Calif.). […]

[4] = 4:1 DNA molar ratio of the coat protein gene to the reporter
[5] = MS2 coat protein gene co-expressed

MS2 coat protein: coat protein of the MS2 RNA bacteriophage, RNA-binding translational repressor
GUS activity, % of the control (GUS expression): 6.9%
fold repression of GUS activity (GUS expression): 14 fold
expression of the aroA:CP4 EPSPS reporter gene, % of the control [1, 4]: 0.4%
fold repression of aroA:CP4 EPSPS reporter [1, 4]: 270 fold
expression of the aroA:CP4 EPSPS reporter gene, % of the control [1, 5]: 14%
fold repression of aroA:CP4 EPSPS reporter [1, 5]: about 7 fold

RPL32: yeast (Saccharomyces cerevisiae) ribosomal protein RPL32, an RNA-binding protein
fold reduction of translation [2]: up to 2.3 fold
translation, % of the control [2]: ≥ 43%

B1: MS2 CP:en: plant expression enhanced version of the MS2 CP gene (SEQ ID NO:3) (nucleic acid)
DNA: ATGGCCTCCAACTTCACCCAGTTCGTGCTCGTGGACAACGGCGGCACCGGCGACGTGACCGTCGCCCCAAGCAACTTCGCCAACGGGGTCGCCGAGTGGATCAGCTCCAACTCGCGCTCCCAGGCCTACAAGGTGACCTGCAGCGTGCGCCAGTCCTCCGCGCAGAACCGCAAGTACACCATCAAGGTCGAGGTGCCGAAGGTGGCCACCCAGACCGTCGGCGGCGTGGAGCTGCCAGTGGCCGCCTGGCGCTCGTACCTCAACATGGAGCTGACCATCCCAATCTTCGCCACGAACTCCGACTGCGAGCTGATCGTGAAGGCCATGCAAGGCCTCCTGAAGGACGGCAACCCGATCCCCTCCGCCATCGCCGCCAACTCCGGCATCTACTAA
modifications: synthetic plant MS2 CP gene
increase in efficiency of translational repression compared to the respective native gene construct, expressed as decrease in GUS activity [3]: 74-80%
